Reference: US11034991B2, “Methods to determine KDM1A target engagement and chemoprobes useful therefor” (Oryzon Genomics S.A., priority 2016, dated 2021)
Entries after “also recorded” stand apart in the source; their conditions may differ. Where a name gives a salt, the structure may show the parent alone. Values belong to the compound of their own block, whether it stands above or below them.

Experiments:
Human recombinant MAO-B = Human recombinant MAO-B (Homo sapiens (Human), UniProt P27338); test: MAO inhibition (kynuramine fluorescence assay), MAO-B; type: biochemical; details: kynuramine at KM, 1 h at 37° C.
Protocol: (§1) The target selectivity of the chemoprobes for binding FAD in KDM1A relative to other FAD containing enzymes is evaluated by testing the chemoprobes in different biochemical assays to determine its MAO-A, MAO-B, IL4I1 and SMOX inhibitory activity in vitro. All IC50 values were calculated using Graph Prism Software.
(§2) Human recombinant MAO-A and MAO-B were purchased from Sigma Aldrich (#M7316 and #M7441 respectively). Enzymatic activities and inhibition rate were analyzed in a fluorescence based assay using kynuramine (Sigma Aldrich #K3250) as a substrate. Clorgiline and Deprenyl (Sigma Aldrich #M3778 and #M003) were used as controls for specific inhibition of MAO-A and MAO-B respectively. Compounds were pre-incubated with protein for 15 min on ice in 100 mM Hepes pH 7.5. The enzymatic reaction was initiated by the addition of specific KM Kynuramine and incubated 1 h at 37° C. The reaction was stopped by adding NaOH 2N (v/v). The conversion of kynuramine to 4-hydroxyquinoline was monitored by fluorescence (λex=320 nm, λem=360 nm) using a microplate reader.

[1] = molecular target: Mouse recombinant SMOX enzyme (Mus musculus (Mouse), UniProt Q99K82); test: SMOX inhibition (spermine oxidation, HRP/Amplex red); type: biochemical; details: KM spermine, 10 minutes; read-out: mSMOX IC50
Protocol: as §1
Mouse recombinant SMOX enzyme was provided by Professor Paolo Mariottini (Rome University). The biochemical activity was measured by its ability to oxidize spermine in a horseradish peroxidase coupled assay using Amplex red as a substrate. The assay buffer for mSMOX reaction was 100 mM Sodium Phosphate pH 8.0. The inhibition by tested compounds was monitored during 10 minutes in the presence of KM spermine.

hIL-4I1 = hIL-4I1 (Homo sapiens (Human), UniProt Q96RQ9); test: IL-4I1 inhibition (phenylalanine oxidation, HRP/Amplex red); type: biochemical
Protocol: as §1
Human recombinant IL-411 was purchased from RD Systems (#5684-A0-020). The biochemical activity was measured by its ability to oxidize phenylalanine and produce H2O2 in a horseradish-peroxidase coupled assay using Amplex red as substrate.

Human recombinant MAO-A = Human recombinant MAO-A (Homo sapiens (Human), UniProt P21397); test: MAO inhibition (kynuramine fluorescence assay), MAO-A; type: biochemical; details: kynuramine at KM, 1 h at 37° C.
Protocol: as §1, §2

KDM1A from THP-1 cells = KDM1A from THP-1 cells (Homo sapiens (Human), UniProt O60341); details: pretreatment with 25 nM; chemoprobe example 1.1
Protocol: (§6) Tubes were incubated for 5 min on ice and briefly sonicated to achieve lysis. The resulting extracts were centrifuged 10 min at 14.000×g at 4° C. Supernatants were collected and quantified by Bradford assay (BIO-RAD; #500-0006) following manufacturer's instructions.
(§7) 350 μg of protein extracts (containing the chemoprobe) was then added and incubated for 30 min at room temperature (RT) using gentle rotation. The chemoprobe-KDM1A complex bound to the streptavidin beads was separated using a magnet and washed 4 times in PBS. After the last wash, samples were resuspended in 25 μL of 3×SDS Sample Buffer and analyzed by western blot. Samples were separated on a 10% Bis-Tris NuPAGE® Novex® Precast gel (Invitrogen; #P0301BOX) following manufacturer's instructions. Gels were transferred onto nitrocellulose membrane (GE Healthcare; #RPN303D) for immunodetection by semi-dry transfer. N-specific binding sites were blocked by incubating membranes in blocking buffer (5% non-fat dry milk in PBS-Tween 0.1%) at RT for 1 h. […] Signal was detected by enhanced chemiluminescence (ECL, Amersham, GE Healthcare; #W9643350) using a GeneGnome HR System (Syngene).

KDM1A in rat PBMCs [2] = molecular target: T1, KDM1A in rat PBMCs (Rattus norvegicus (Rat), UniProt A0A8I6G2K8); test: In vivo KDM1A target engagement, ex vivo rat PBMCs; details: pooled rat PBMC, oral gavage 4 consecutive days, 1, 3, 10 and 30 ug/kg/day, two hours after last administration
Protocol: Peripheral blood mononuclear cells (PBMCs) from rat were isolated from peripheral fresh blood collected in anticoagulant tubes for blood (K2- or K3-EDTA as the preferred anticoagulant tubes) and diluted with an equal volume of PBS, using Ficoll-Paque PLUS reagent (GE Healthcare; #17-1440-02) or Leucosep Tubes (Greiner bio-one; #227288) according to manufacturer's instructions. Cells were stained with tryptan blue and cell number and viability were determined using a Neubauer Chamber in an optical microscope. Pellets of 1·10^6 PBMCs were preserved at −80° C. The same procedure can be used for isolation of PBMCs from other resources such as human or mouse blood. In the case of human samples, preferably Leucosep procedure is used, whereas for mouse PBMCs, Ficoll procedure is preferred.
8.1. Samples preparation and obtention of protein extracts from cells was performed as described in example 5. Frozen tissues were homogenized with a mortar and pestle chilled on dry ice. […]
(§3) Four different doses were used (1, 3, 10 and 30 ug/kg/day). The KDM1A target engagement was calculated as described previously (see example 7), where RX corresponds to each condition analyzed and RREF is the sample corresponding to vehicle (non treated) rat PBMCs.

KDM1A in LNCap cells = KDM1A in LNCap cells (Homo sapiens (Human), UniProt O60341); test: KDM1A target engagement in cells (chemoprobe luminescent ELISA), LNCap; type: cell-based; details: LNCap cells treated for 24 h at 0.1, 1 and 10 nM
Protocol: Coating was performed at 4° C.

human rKDM1A = human rKDM1A (Homo sapiens (Human), UniProt O60341); test: AlphaLISA detection of free KDM1A; type: binding; details: pretreatment of the enzyme at 5 uM; chemoprobe Example 1.6 100 nM
Protocol: The AlphaLISA assay detects the proximity of a first detection agent containing […] latex donor beads containing phthalocyanine that release singlet oxygen after irradiation at […] to a second detection agent containing similar sized acceptor beads containing Europium that emit a narrow peak of light at […] after absorption of singlet oxygen. The AlphaPlex assay allows detection of multiple analytes in the same assay volume and works similarly, but two acceptor beads are used (second and third detection agents) containing respectively Terbium or Samarium and emit light at 545 nM or 645 nM after absorption. Effective singlet oxygen transfer occurs when donor and acceptor beads are separated by a distance of less than 200 nm.
For example, anti-KDM1A antibody (mAb-844) was conjugated to AlphaLISA acceptor beads (Perkin Elmer #6772001) to generate a first detection agent, and anti-KDM1A antibody (mAb-825) was conjugated to AlphaLISA donor beads (Perkin Elmer #6762013) to generate a second detection agent that together form a detection system that can be used to determine total KDM1A levels. […]

KDM1A in rat PBMCs [3] = molecular target: T1, KDM1A in rat PBMCs; test: Dynamics of KDM1A target engagement in rat pooled PBMCs; type: in vivo
Protocol: Obtention of proteins extracts, assay protocol and calculation of TE as described in example 8.1, 7.1 and 7.2 respectively.
PBMCs were obtained pre-dose (before starting the drug administration) and 2, 6, 24 h after the single dose administration, or pre-dose (i.e. 0 h) and 2, 6, 24, 48 and 72 h after the last drug administration in the multiple dose administration. Total and free KDM1A protein levels in PBMCs were assessed using 0.5 ug of total protein extracts. […] The KDM1A target engagement was calculated as described previously (see section 7.2)), where RX corresponds to each time-point analyzed and RREF is the sample corresponding to the pre-dose of rat PBMC.

KDM1A in MV(4;11) cells = KDM1A in MV(4;11) cells (Homo sapiens (Human), UniProt O60341); details: 24 h of treatment
Protocol: Total protein extracts were quantified and 1 ug of total protein was used to perform the target engagement analysis as described above, using the luminescent substrate.

[4] = molecular target: KDM1A from MV(4;11) cells (Homo sapiens (Human), UniProt O60341); details: MV(4;11) cells pre-treated with 25 nM; chemoprobes Examples 1.4 and 1.5
Protocol: as §6, §7

KDM1A in THP-1 cells = KDM1A in THP-1 cells (Homo sapiens (Human), UniProt O60341); test: KDM1A target engagement in cells (chemoprobe luminescent ELISA), THP-1; details: THP-1 cells treated for 24 h, 0.25-25 nM
KDM1A in rat lung = KDM1A in rat lung (Rattus norvegicus (Rat), UniProt A0A8I6G2K8); test: In vivo KDM1A target engagement, ex vivo rat lung; details: pooled rat lung, oral gavage 4 consecutive days, 1, 3, 10 and 30 ug/kg/day
Protocol: (§4) 8.1. Samples preparation and obtention of protein extracts from cells was performed as described in example 5. Frozen tissues were homogenized with a mortar and pestle chilled on dry ice. Powdered samples were resuspended in lysis buffer and forced through a 18 gauge blunt syringe needle to lyse the cells, proteins were then extracted as described above for cell pellets (example 5.2). Isolation of PBMCs from peripheral blood was also as described in example 5.2.
(§5) 8.2. Assay Protocol and Calculation of TE: same as Described in Example 7.1 and 7.2.
as §3

KDM1A in brain = test: In vivo KDM1A target engagement, brain of SAMP8 mice
Protocol: as §4, §5
The methods of the invention have also been used to determine KDM1A target engagement in SAMP8 mice (a non-transgenic model for neurodegeneration reminiscent of Alzheimer's disease) which have been treated with the KDM1A inhibitor designated as Compound C. Compound C is the compound with chemical name (−)5-((((trans)-2-(4-(benzyloxy)phenyl)cyclopropyl)amino)methyl)-1,3,4-oxadiazol-2-amine, which is described in WO2012/013728. […] Female SAMP8 mice were treated with Compound C starting at 5 months of age and during 2 months. Mice were randomly distributed in three groups, receiving vehicle or Compound C at 0.11 mg/kg/day or 0.32 mg/kg/day, respectively. […] The dose was calculated according to the animal water consumption average per cage and adjusted weekly. […]

KDM1A in PBMCs = KDM1A in PBMCs (Homo sapiens (Human), UniProt O60341); test: KDM1A target engagement in PBMCs of healthy volunteers (Phase I clinical study); type: in vivo; details: single oral dose of 1.5 mg, 12 and 72 h post-administration, 6 volunteers
Protocol: A Phase I clinical study has been performed to characterize the safety, tolerability, pharmacokinetics and pharmacodynamics of Compound C in healthy volunteers. The first stage of this clinical study is a randomized, double-blind, dose escalation study, in which the KDM1A inhibitor was administered as a single oral dose in capsules. Up to five different dose levels were tested in cohorts of 8 volunteers, randomized to receive either Compound C (n=6) or placebo (n=2). As part of the pharmacodynamic evaluations in this clinical study, KDM1A target engagement (TE) was assessed at pre-treatment, and 12 and 72 h after drug administration. Briefly, blood samples (10 mL) were collected in EDTA-K2 tubes from all the treated volunteers (active drug and placebo, n=8 per dose level) and PBMCs pellets obtained by density gradient centrifugation in Leucosep™ tubes and stored at −90° C. until analysis. Only PBMC samples meeting pre-established sample quality control criteria are used for the TE analysis. In particular, samples with signs of hemolysis and/or with traces of red cells are discarded.
KDM1A TE values obtained for each volunteer in the cohort of volunteers corresponding to the single dose of 1.5 mg of Compound C are shown in FIG. 11.

[5] = molecular target: human recombinant KDM1A enzyme (Homo sapiens (Human), UniProt O60341); details: read-out: KDM1A IC50 (biochemical assay)
Protocol: The ability of the chemoprobes to inhibit KDM1A was tested in vitro using the assay described below.
KDM1A inhibition assay: a multistep enzymatic reaction in which the enzyme first produces H2O2 during the demethylation of lysine 4 in a 21 AA H3K4me2 N-terminal peptide. […] After 30 min of incubation at 37° C. Amplex Red reagent and the horseradish peroxidase (HRP) solution were added according to the recommendations of the supplier (Invitrogen) and left to incubate for 5 min at room temperature in the dark. Conversion of the Amplex Red reagent to resorufin, was monitored by fluorescence (λex=540 nm, λem=590 nm) using a microplate reader (Infinite F200 Tecan). Signals were corrected for background and the IC50 value was calculated with GraphPad Prism Software.

Sequence of hIL-4I1 (Q96RQ9 22-567): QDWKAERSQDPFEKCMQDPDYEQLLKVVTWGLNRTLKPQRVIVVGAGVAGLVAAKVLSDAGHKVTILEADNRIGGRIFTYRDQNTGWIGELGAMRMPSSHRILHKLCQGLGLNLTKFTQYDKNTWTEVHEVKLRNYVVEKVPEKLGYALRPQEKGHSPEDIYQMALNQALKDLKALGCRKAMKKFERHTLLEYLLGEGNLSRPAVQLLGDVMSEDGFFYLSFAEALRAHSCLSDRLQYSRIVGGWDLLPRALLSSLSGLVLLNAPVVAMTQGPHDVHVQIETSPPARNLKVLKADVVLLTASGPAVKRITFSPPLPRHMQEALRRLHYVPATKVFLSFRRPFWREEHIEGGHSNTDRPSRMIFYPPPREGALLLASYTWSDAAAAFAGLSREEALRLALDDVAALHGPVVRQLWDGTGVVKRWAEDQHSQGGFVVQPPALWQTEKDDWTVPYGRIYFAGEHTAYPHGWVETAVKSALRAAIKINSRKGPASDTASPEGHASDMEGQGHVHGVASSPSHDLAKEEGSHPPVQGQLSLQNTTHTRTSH
Sequence of Human recombinant MAO-B (P27338 whole entry): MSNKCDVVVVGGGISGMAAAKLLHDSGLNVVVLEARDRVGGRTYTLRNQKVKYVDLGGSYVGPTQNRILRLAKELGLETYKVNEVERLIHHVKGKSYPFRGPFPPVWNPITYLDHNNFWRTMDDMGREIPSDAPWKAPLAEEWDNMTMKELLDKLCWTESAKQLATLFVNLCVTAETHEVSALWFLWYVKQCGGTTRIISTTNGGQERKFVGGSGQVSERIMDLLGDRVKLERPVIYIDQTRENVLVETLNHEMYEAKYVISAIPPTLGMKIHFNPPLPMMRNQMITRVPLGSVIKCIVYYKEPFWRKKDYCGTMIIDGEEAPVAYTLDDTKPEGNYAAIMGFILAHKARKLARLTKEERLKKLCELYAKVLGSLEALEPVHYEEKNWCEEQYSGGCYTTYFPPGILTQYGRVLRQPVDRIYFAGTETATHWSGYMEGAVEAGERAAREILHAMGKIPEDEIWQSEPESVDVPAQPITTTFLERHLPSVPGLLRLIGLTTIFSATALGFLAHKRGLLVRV
Sequence of Human recombinant MAO-A (P21397 whole entry): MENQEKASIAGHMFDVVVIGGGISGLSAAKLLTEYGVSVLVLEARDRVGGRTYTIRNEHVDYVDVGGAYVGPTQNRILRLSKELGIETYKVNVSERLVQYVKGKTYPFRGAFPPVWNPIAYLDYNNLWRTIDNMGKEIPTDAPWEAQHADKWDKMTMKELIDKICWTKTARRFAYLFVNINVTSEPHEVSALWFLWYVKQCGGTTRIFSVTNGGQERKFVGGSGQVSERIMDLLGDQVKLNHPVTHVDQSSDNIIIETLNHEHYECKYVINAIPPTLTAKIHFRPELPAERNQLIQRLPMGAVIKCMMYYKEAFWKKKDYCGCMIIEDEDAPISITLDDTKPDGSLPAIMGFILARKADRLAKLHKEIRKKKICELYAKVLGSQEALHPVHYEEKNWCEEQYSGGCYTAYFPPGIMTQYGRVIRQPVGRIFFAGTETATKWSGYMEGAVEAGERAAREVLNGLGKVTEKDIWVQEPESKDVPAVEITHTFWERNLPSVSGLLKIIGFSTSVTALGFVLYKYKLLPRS
Sequence of Mouse recombinant SMOX enzyme (Q99K82 whole entry): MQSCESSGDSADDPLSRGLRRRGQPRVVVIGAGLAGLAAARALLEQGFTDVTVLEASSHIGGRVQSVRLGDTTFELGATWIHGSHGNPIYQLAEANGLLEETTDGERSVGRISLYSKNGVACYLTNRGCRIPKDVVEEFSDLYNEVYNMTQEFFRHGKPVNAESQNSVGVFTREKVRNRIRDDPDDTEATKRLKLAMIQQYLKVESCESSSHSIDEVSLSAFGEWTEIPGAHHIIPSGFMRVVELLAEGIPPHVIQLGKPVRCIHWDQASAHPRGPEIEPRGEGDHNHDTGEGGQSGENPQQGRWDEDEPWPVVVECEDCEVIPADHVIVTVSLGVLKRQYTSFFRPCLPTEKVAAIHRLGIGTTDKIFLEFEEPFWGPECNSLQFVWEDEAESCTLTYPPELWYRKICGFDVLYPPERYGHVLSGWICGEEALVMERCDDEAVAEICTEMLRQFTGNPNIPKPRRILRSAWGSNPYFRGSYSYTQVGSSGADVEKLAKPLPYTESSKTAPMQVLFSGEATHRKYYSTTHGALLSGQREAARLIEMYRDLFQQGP

IC50 (Human recombinant MAO-B): > 100 µM
IC50 [1]: 13 µM
IC50 (hIL-4I1; KM phenylalanine, 30 minutes): > 100 µM
inhibition at 100 µM (hIL-4I1; at 100 uM): 31%
IC50 (Human recombinant MAO-A): > 100 µM
SMILES: N[C@H]1CC[C@H](N[C@@H]2C[C@H]2c2ccc(-c3cccc(CCC(=O)NCCOCCOCCOCCOCCOCCOCCOCCOCCOCCOCCOCCNC(=O)CCCC[C@@H]4SC[C@@H]5NC(=O)N[C@@H]54)c3)cc2)CC1 [Example 1.6, N-(39-(4′-((1S,2R)-2-(((trans)-4-aminocyclohexyl)amino)cyclopropyl)-[1,1′-biphenyl]-3-yl)-37-oxo-3,6,9,12,15,18,21,24,27,30,33-undecaoxa-36-azanonatriacontyl)-5-((3aS,4S,6aR)-2-oxohexahydro-1H-thieno[3,4-d]imidazol-4-yl)pentanamide dihydrochloride]

SMILES: N[C@H]1CC[C@H](N[C@@H]2C[C@H]2c2ccccc2)CC1 [ORY-1001, (trans)-N1-((1R,2S)-2-phenylcyclopropyl)cyclohexane-1,4-diamine]
effect of pretreatment on pull-down of KDM1A by chemoprobe (KDM1A from THP-1 cells): completely prevented pull-down of KDM1A
KDM1A target engagement (in %) (KDM1A in rat PBMCs [2]): clear dose-response of KDM1A target engagement
KDM1A target engagement (KDM1A in LNCap cells): clear KDM1A target engagement
free KDM1A signal (AlphaLISA) (human rKDM1A): blocked
target engagement after multiple administrations versus single administration (KDM1A in rat PBMCs [3]; at the same dose level): higher than single administration
percentage of KDM1A target engagement over time (KDM1A in rat PBMCs [3]; pooled rat PBMCs, p.o. 2.5 and 15 ug/kg/day, single dose or 5 consecutive days): clear time- and dose-response in KDM1A target engagement
percentage of KDM1A target engagement after the last dose in absence of further treatment (KDM1A in rat PBMCs [3]; up to 72 h after the last administration): gradually decreases
% of KDM1A target engagement (KDM1A in MV(4;11) cells): dose-responsive cellular target engagement
effect of pre-treatment on pull-down of KDM1A by chemoprobes [4]: completely prevented pull-down of KDM1A
% of Target engagement (KDM1A in THP-1 cells): dose-responsive cellular target engagement
KDM1A target engagement (in %) (KDM1A in rat lung): clear dose-response of KDM1A target engagement

SMILES: Nc1nnc(CN[C@@H]2C[C@H]2c2ccc(OCc3ccccc3)cc2)o1 [Compound C, (−)5-((((trans)-2-(4-(benzyloxy)phenyl)cyclopropyl)amino)methyl)-1,3,4-oxadiazol-2-amine]
mean % KDM1A target engagement (KDM1A in brain; brain of female SAMP8 mice, 0.11 or 0.32 mg/kg/day in drinking water, 2 months): clear dose-response of KDM1A target engagement
brain penetration (KDM1A in brain; mouse, in vivo): enters the brain; also recorded: cross the blood-brain barrier
KDM1A TE (KDM1A in PBMCs): Clear KDM1A target engagement
IC50 [5]: 0.101 µM
